Reference: US10370333B2 (Sanford Burnham Prebys Medical Discovery Institute, priority 2012, dated 2019)

What follows are molecules tested against TNAP (Homo sapiens (Human), UniProt P05186) (assay: TNAP (PPi) inhibition assay, pyrophosphate as substrate).
Type: biochemical
Procedure, shortened: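 Enzyme source was conditioned serum-free medium from COS-1 cells transiently expressing tagged human TNAP, dialyzed against TBS with MgCl2/ZnCl2. Activity on natural substrate PPi at pH 7.4 read as liberated phosphate (Biomol Green).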

SMILES	IC50 [nM]
O=S(=O)(Nc1cncc(-c2ccc(F)cc2)c1)c1cc(Cl)ccc1OC(F)(F)F [Example XI-8, 5-Chloro-N-(5-(4-fluorophenyl)pyridin-3-yl)-2-(trifluoromethoxy)benzenesulfonamide]	< 100
O=S(=O)(Nc1cncc(-c2ccc(F)cc2)c1)c1cc(Br)ccc1OC(F)(F)F [Example XI-9, 5-Bromo-N-(5-(4-fluorophenyl)pyridin-3-yl)-2-(trifluoromethoxy)benzenesulfonamide]	100 to 1000
COc1ccc(OC(F)(F)F)cc1S(=O)(=O)Nc1cncc(-c2ccc(F)cc2)c1 [Example XI-10, N-(5-(4-Fluorophenyl)pyridin-3-yl)-2-methoxy-5-(trifluoromethoxy)benzenesulfonamide]	100 to 1000
N#Cc1ccc(-c2cncc(NS(=O)(=O)c3cc(Br)ccc3OC(F)(F)F)c2)cc1 [Example XI-11, 5-Bromo-N-(5-(4-cyanophenyl)pyridin-3-yl)-2-(trifluoromethoxy)benzenesulfonamide]	100 to 1000
O=S(=O)(Nc1cncc(-c2ccco2)c1)c1cc(Cl)ccc1OC(F)(F)F [Example XI-12, 5-Chloro-N-(5-(furan-2-yl)pyridin-3-yl)-2-(trifluoromethoxy)benzenesulfonamide]	< 100
COc1ccc(OC(F)(F)F)cc1S(=O)(=O)Nc1cncc(-c2ccco2)c1 [Example XI-13, N-(5-(Furan-2-yl)pyridin-3-yl)-2-methoxy-5-(trifluoromethoxy)benzenesulfonamide]	< 100
O=S(=O)(Nc1cncc(-c2cccs2)c1)c1cc(Cl)ccc1OC(F)(F)F [Example XI-14, 5-Chloro-N-(5-(thiophen-2-yl)pyridin-3-yl)-2-(trifluoromethoxy)benzenesulfonamide]	100 to 1000
O=S(=O)(Nc1cncc(-c2cccs2)c1)c1cc(Br)ccc1OC(F)(F)F [Example XI-15, 5-Bromo-N-(5-(thiophen-2-yl)pyridin-3-yl)-2-(trifluoromethoxy)benzenesulfonamide]	100 to 1000
COc1ccc(OC(F)(F)F)cc1S(=O)(=O)Nc1cncc(-c2cccs2)c1 [Example XI-16, 2-Methoxy-N-(5-(thiophen-2-yl)pyridin-3-yl)-5-(trifluoromethoxy)benzenesulfonamide]	< 100
O=S(=O)(Nc1cncc(-c2ccccn2)c1)c1cc(Cl)ccc1OC(F)(F)F [Example XI-17, N-([2,3′-Bipyridin]-5′-yl)-5-chloro-2-(trifluoromethoxy)benzenesulfonamide]	100 to 1000
O=S(=O)(Nc1cncc(-c2ccccn2)c1)c1cc(Br)ccc1OC(F)(F)F [Example XI-18, N-([2,3′-Bipyridin]-5′-yl)-5-bromo-2-(trifluoromethoxy)benzenesulfonamide]	100 to 1000
COc1ccc(OC(F)(F)F)cc1S(=O)(=O)Nc1cncc(-c2ccccn2)c1 [Example XI-19, N-([2,3′-Bipyridin]-5′-yl)-2-methoxy-5-(trifluoromethoxy)benzenesulfonamide]	100 to 1000
O=S(=O)(Nc1cncc(-c2cnccn2)c1)c1cc(Cl)ccc1OC(F)(F)F [Example XI-20, 5-Chloro-N-(5-(pyrazin-2-yl)pyridin-3-yl)-2-(trifluoromethoxy)benzenesulfonamide]	100 to 1000
O=S(=O)(Nc1cncc(-c2cnccn2)c1)c1cc(Br)ccc1OC(F)(F)F [Example XI-21, 5-Bromo-N-(5-(pyrazin-2-yl)pyridin-3-yl)-2-(trifluoromethoxy)benzenesulfonamide]	100 to 1000
COc1ccc(OC(F)(F)F)cc1S(=O)(=O)Nc1cncc(-c2cnccn2)c1 [Example XI-22, 2-Methoxy-N-(5-(pyrazin-2-yl)pyridin-3-yl)-5-(trifluoromethoxy)benzenesulfonamide]	100 to 1000
O=S(=O)(Nc1cncc(-c2ncccn2)c1)c1cc(Cl)ccc1OC(F)(F)F [Example XI-23, 5-chloro-N-(5-(pyrimidin-2-yl)pyridin-3-yl)-2-(trifluoromethoxy)benzenesulfonamide]	> 1000
O=S(=O)(Nc1cncc(-c2ncccn2)c1)c1cc(Br)ccc1OC(F)(F)F [Example XI-24, 5-Bromo-N-(5-(pyrimidin-2-yl)pyridin-3-yl)-2-(trifluoromethoxy)benzenesulfonamide]	100 to 1000
O=S(=O)(Nc1cncc(-c2cncs2)c1)c1cc(Cl)ccc1OC(F)(F)F [Example XI-25, 5-Chloro-N-(5-(thiazol-5-yl)pyridin-3-yl)-2-(trifluoromethoxy)benzenesulfonamide]	100 to 1000
O=S(=O)(Nc1cncc(-c2cncs2)c1)c1cc(Br)ccc1OC(F)(F)F [Example XI-26, 5-bromo-N-(5-(thiazol-5-yl)pyridin-3-yl)-2-(trifluoromethoxy)benzenesulfonamide]	< 100
COc1ccc(OC(F)(F)F)cc1S(=O)(=O)Nc1cncc(-c2cncs2)c1 [Example XI-27, 2-Methoxy-N-(5-(thiazol-5-yl)pyridin-3-yl)-5-(trifluoromethoxy)benzenesulfonamide]	100 to 1000
O=S(=O)(Nc1cncc(-c2cscn2)c1)c1cc(Cl)ccc1OC(F)(F)F [Example XI-28, 5-Chloro-N-(5-(thiazol-4-yl)pyridin-3-yl)-2-(trifluoromethoxy)benzenesulfonamide]	< 100

SMILES	IC50 [nM]
O=S(=O)(Nc1cncc(-c2cscn2)c1)c1cc(Br)ccc1OC(F)(F)F [Example XI-29, 5-Bromo-N-(5-(thiazol-4-yl)pyridin-3-yl)-2-(trifluoromethoxy)benzenesulfonamide]	< 100
COc1ccc(OC(F)(F)F)cc1S(=O)(=O)Nc1cncc(-c2cscn2)c1 [Example XI-30, 2-Methoxy-N-(5-(thiazol-4-yl)pyridin-3-yl)-5-(trifluoromethoxy)benzenesulfonamide]	< 100
Cn1cc(-c2cncc(NS(=O)(=O)c3cc(Br)ccc3OC(F)(F)F)c2)cn1 [Example XI-31, 5-Bromo-N-(5-(1-methyl-1H-pyrazol-4-yl)pyridin-3-yl)-2-(trifluoromethoxy)benzenesulfonamide]	< 100
COc1ccc(OC(F)(F)F)cc1S(=O)(=O)Nc1cncc(-c2cnn(C)c2)c1 [Example XI-32, 2-Methoxy-N-(5-(1-methyl-1H-pyrazol-4-yl)pyridin-3-yl)-5-(trifluoromethoxy)benzenesulfonamide]	< 100
COC(=O)c1cncc(NS(=O)(=O)c2cc(Cl)ccc2OC(F)(F)F)c1 [Example XII-1, Methyl 5-(5-chloro-2-(trifluoromethoxy)phenylsulfonamido)nicotinate]	100 to 1000
O=C(OC1CCCCC1)c1cncc(NS(=O)(=O)c2cc(Cl)ccc2OC(F)(F)F)c1 [Example XII-3, Cyclohexyl 5-(5-chloro-2-(trifluoromethoxy)phenylsulfonamido)nicotinate]	< 100
O=C(Oc1ccccc1)c1cncc(NS(=O)(=O)c2cc(Cl)ccc2OC(F)(F)F)c1 [Example XII-4, Phenyl 5-(5-chloro-2-(trifluoromethoxy)phenylsulfonamido)nicotinate]	< 100
CNC(=O)c1cncc(NS(=O)(=O)c2cc(Cl)ccc2OC(F)(F)F)c1 [Example XII-6, 5-(5-Chloro-2-(trifluoromethoxy)phenylsulfonamido)-N-methylnicotinamide]	100 to 1000
CCCNC(=O)c1cncc(NS(=O)(=O)c2cc(Cl)ccc2OC(F)(F)F)c1 [Example XII-7, 5-(5-Chloro-2-(trifluoromethoxy)phenylsulfonamido)-N-propylnicotinamide]	> 1000
O=C(NC1CCCCC1)c1cncc(NS(=O)(=O)c2cc(Cl)ccc2OC(F)(F)F)c1 [Example XII-8, 5-(5-Chloro-2-(trifluoromethoxy)phenylsulfonamido)-N-cyclohexylnicotinamide]	100 to 1000
COC(=O)c1cncc(NS(=O)(=O)c2cc(Br)ccc2OC(F)(F)F)c1 [Example XII-9, Methyl 5-(5-bromo-2-(trifluoromethoxy)phenylsulfonamido)nicotinate]	100 to 1000
O=C(O)c1cncc(NS(=O)(=O)c2cc(Br)ccc2OC(F)(F)F)c1 [Example XII-10, 5-(5-Bromo-2-(trifluoromethoxy)phenylsulfonamido)nicotinic acid]	< 100
O=C(OC1CCCCC1)c1cncc(NS(=O)(=O)c2cc(Br)ccc2OC(F)(F)F)c1 [Example XII-11, Cyclohexyl 5-(5-bromo-2-(trifluoromethoxy)phenylsulfonamido)nicotinate]	< 100
O=C(Oc1ccccc1)c1cncc(NS(=O)(=O)c2cc(Br)ccc2OC(F)(F)F)c1 [Example XII-12, Phenyl 5-(5-bromo-2-(trifluoromethoxy)phenylsulfonamido)nicotinate]	< 100
NC(=O)c1cncc(NS(=O)(=O)c2cc(Br)ccc2OC(F)(F)F)c1 [Example XII-13, 5-(5-Bromo-2-(trifluoromethoxy)phenylsulfonamido)nicotinamide]	< 100
CNC(=O)c1cncc(NS(=O)(=O)c2cc(Br)ccc2OC(F)(F)F)c1 [Example XII-14, 5-(5-Bromo-2-(trifluoromethoxy)phenylsulfonamido)-N-methylnicotinamide]	100 to 1000
COC(=O)c1cncc(NS(=O)(=O)c2cc(OC(F)(F)F)ccc2OC)c1 [Example XII-15, Methyl 5-(2-methoxy-5-(trifluoromethoxy)phenylsulfonamido)nicotinate]	100 to 1000
CCCOC(=O)c1cncc(NS(=O)(=O)c2cc(OC(F)(F)F)ccc2OC)c1 [Example XII-16, Propyl 5-(2-methoxy-5-(trifluoromethoxy)phenylsulfonamido)nicotinate]	< 100
COc1ccc(OC(F)(F)F)cc1S(=O)(=O)Nc1cncc(C(=O)OC2CCCCC2)c1 [Example XII-17, Cyclohexyl 5-(2-methoxy-5-(trifluoromethoxy)phenylsulfonamido)nicotinate]	< 100
COc1ccc(OC(F)(F)F)cc1S(=O)(=O)Nc1cncc(C(=O)Oc2ccccc2)c1 [Example XII-18, Phenyl 5-(2-methoxy-5-(trifluoromethoxy)phenylsulfonamido)nicotinate]	< 100
CNC(=O)c1cncc(NS(=O)(=O)c2cc(OC(F)(F)F)ccc2OC)c1 [Example XII-20, 5-(2-Methoxy-5-(trifluoromethoxy)phenylsulfonamido)-N-methylnicotinamide]	100 to 1000
